What was measured:
Test in all cases: relative viability (nuclei count vs DMSO), 5 days (fraction); higher = more cells survive
[1] = tested on: NCI-H1355
Summary of the method: (§1)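 Lung cancer cell lines in 1536-well plates got either a single drug or a fixed anchor-drug dose together with five library-drug doses (not always all listed) in √10 steps, by pin tool, on the day after seeding. Nuclei were counted after 5 days, and relative viability is the treated-to-vehicle ratio of nuclei counts. Values are medians of duplicate plates.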

[2] = tested on: NCI-H2085
Summary of the method: as §1

[3] = tested on: NCI-H1915
Summary of the method: as §1

[4] = tested on: LC-2-ad
Summary of the method: as §1

[5] = tested on: ChaGo-K-1
Summary of the method: as §1

[6] = tested on: NCI-H23
Summary of the method: as §1

[7] = tested on: NCI-H1651
Summary of the method: as §1

[8] = tested on: NCI-H2126
Summary of the method: as §1

[9] = tested on: A-427
Summary of the method: as §1

[10] = tested on: COR-L23
Summary of the method: as §1

[11] = tested on: SK-MES-1
Summary of the method: as §1

[12] = tested on: NCI-H1993
Summary of the method: as §1

[13] = tested on: HOP-62
Summary of the method: as §1

[14] = tested on: COR-L 105
Summary of the method: as §1

[15] = tested on: NCI-H647
Summary of the method: as §1

[16] = tested on: NCI-H322M
Summary of the method: as §1

[17] = tested on: LCLC-103H
Summary of the method: as §1

[18] = tested on: HCC-44
Summary of the method: as §1

[19] = tested on: NCI-H2087
Summary of the method: as §1

[20] = tested on: NCI-H520
Summary of the method: as §1

[21] = tested on: 201T
Summary of the method: as §1

[22] = tested on: H3255
Summary of the method: as §1

[23] = tested on: RERF-LC-KJ
Summary of the method: as §1

[24] = tested on: NCI-H441
Summary of the method: as §1

Nc1cccc2c1CN(C1CCC(=O)NC1=O)C2=O (centres undefined) [Lenalidomide] + C[C@@H](Oc1cc(-c2cnn(C3CCNCC3)c2)cnc1N)c1c(Cl)ccc(F)c1Cl [Crizotinib] (partner 1 µM)
relative viability ([1]; first compound 0.253 µM): 1.04
relative viability ([1]; first compound 0.8 µM): 0.956
relative viability ([1]; first compound 2.53 µM): 1.26
relative viability ([1]; first compound 8 µM): 0.923
relative viability ([2]; first compound 0.253 µM): 0.866
relative viability ([2]; first compound 0.8 µM): 0.742
relative viability ([2]; first compound 2.53 µM): 0.97
relative viability ([2]; first compound 8 µM): 0.926
relative viability ([3]; first compound 0.253 µM): 0.906
relative viability ([3]; first compound 0.8 µM): 0.88
relative viability ([3]; first compound 2.53 µM): 0.978
relative viability ([3]; first compound 8 µM): 0.952
relative viability ([4]; first compound 0.253 µM): 0.516
relative viability ([4]; first compound 0.8 µM): 0.43
relative viability ([4]; first compound 2.53 µM): 0.547
relative viability ([4]; first compound 8 µM): 0.511
relative viability ([5]; first compound 0.253 µM): 1.1
relative viability ([5]; first compound 2.53 µM): 1.31
relative viability ([5]; first compound 8 µM): 1.28
relative viability ([6]; first compound 0.253 µM): 0.521
relative viability ([6]; first compound 0.8 µM): 0.439
relative viability ([6]; first compound 2.53 µM): 0.605
relative viability ([6]; first compound 8 µM): 0.62
relative viability ([7]; first compound 0.253 µM): 0.875
relative viability ([7]; first compound 0.8 µM): 0.884
relative viability ([7]; first compound 2.53 µM): 0.865
relative viability ([7]; first compound 8 µM): 0.861
relative viability ([8]; first compound 0.253 µM): 1.02
relative viability ([8]; first compound 0.8 µM): 1.02
relative viability ([8]; first compound 2.53 µM): 1.08
relative viability ([8]; first compound 8 µM): 0.993
relative viability ([9]; first compound 0.253 µM): 0.833
relative viability ([9]; first compound 2.53 µM): 0.891
relative viability ([9]; first compound 8 µM): 0.903
relative viability ([10]; first compound 0.253 µM): 0.656
relative viability ([10]; first compound 0.8 µM): 0.634
relative viability ([10]; first compound 2.53 µM): 0.718
relative viability ([10]; first compound 8 µM): 0.82
relative viability ([11]; first compound 0.253 µM): 1
relative viability ([11]; first compound 0.8 µM): 1.04
relative viability ([11]; first compound 2.53 µM): 0.972
relative viability ([11]; first compound 8 µM): 0.974
relative viability ([12]; first compound 0.253 µM): 0.626
relative viability ([12]; first compound 0.8 µM): 0.852
relative viability ([12]; first compound 2.53 µM): 0.761
relative viability ([12]; first compound 8 µM): 0.777
relative viability ([13]; first compound 0.253 µM): 0.859
relative viability ([13]; first compound 0.8 µM): 0.507
relative viability ([13]; first compound 2.53 µM): 0.938
relative viability ([13]; first compound 8 µM): 0.74
relative viability ([14]; first compound 0.253 µM): 0.905
relative viability ([14]; first compound 0.8 µM): 0.716
relative viability ([14]; first compound 2.53 µM): 0.986
relative viability ([14]; first compound 8 µM): 1.12
relative viability ([15]; first compound 0.253 µM): 1.08
relative viability ([15]; first compound 0.8 µM): 1.04
relative viability ([15]; first compound 2.53 µM): 1.22
relative viability ([15]; first compound 8 µM): 1.14
relative viability ([16]; first compound 0.253 µM): 0.911
relative viability ([16]; first compound 0.8 µM): 0.9
relative viability ([16]; first compound 2.53 µM): 0.914
relative viability ([16]; first compound 8 µM): 0.996
relative viability ([17]; first compound 0.253 µM): 1.03
relative viability ([17]; first compound 0.8 µM): 0.965
relative viability ([17]; first compound 2.53 µM): 1.05
relative viability ([17]; first compound 8 µM): 0.904
relative viability ([18]; first compound 0.253 µM): 0.823
relative viability ([18]; first compound 0.8 µM): 0.663
relative viability ([18]; first compound 2.53 µM): 0.857
relative viability ([18]; first compound 8 µM): 0.832
relative viability ([19]; first compound 0.253 µM): 0.81
relative viability ([19]; first compound 0.8 µM): 0.896
relative viability ([19]; first compound 2.53 µM): 0.539
relative viability ([19]; first compound 8 µM): 0.928
relative viability ([20]; first compound 0.253 µM): 0.794
relative viability ([20]; first compound 0.8 µM): 0.777
relative viability ([20]; first compound 2.53 µM): 0.857
relative viability ([20]; first compound 8 µM): 0.752
relative viability ([21]; first compound 0.253 µM): 1.05
relative viability ([21]; first compound 0.8 µM): 1.02
relative viability ([21]; first compound 2.53 µM): 1.04
relative viability ([21]; first compound 8 µM): 1.05
relative viability ([22]; first compound 0.253 µM): 0.79
relative viability ([22]; first compound 0.8 µM): 0.885
relative viability ([22]; first compound 2.53 µM): 0.872
relative viability ([22]; first compound 8 µM): 0.946
relative viability ([23]; first compound 0.253 µM): 0.8
relative viability ([23]; first compound 0.8 µM): 0.778
relative viability ([23]; first compound 2.53 µM): 0.827
relative viability ([23]; first compound 8 µM): 0.835
relative viability ([24]; first compound 0.253 µM): 0.612
relative viability ([24]; first compound 0.8 µM): 0.693
relative viability ([24]; first compound 2.53 µM): 0.726
relative viability ([24]; first compound 8 µM): 0.778
